T1: Hs17p (Saccharomyces cerevisiae, UniProt P38274)
T1 construct: made in house; host or cells: S. cerevisiae hsl7-delta strain SPY103 (pGALFLAGHSL7, GAL1 promoter); anti-Flag immunoprecipitate
T1 sequence (P38274 1-827): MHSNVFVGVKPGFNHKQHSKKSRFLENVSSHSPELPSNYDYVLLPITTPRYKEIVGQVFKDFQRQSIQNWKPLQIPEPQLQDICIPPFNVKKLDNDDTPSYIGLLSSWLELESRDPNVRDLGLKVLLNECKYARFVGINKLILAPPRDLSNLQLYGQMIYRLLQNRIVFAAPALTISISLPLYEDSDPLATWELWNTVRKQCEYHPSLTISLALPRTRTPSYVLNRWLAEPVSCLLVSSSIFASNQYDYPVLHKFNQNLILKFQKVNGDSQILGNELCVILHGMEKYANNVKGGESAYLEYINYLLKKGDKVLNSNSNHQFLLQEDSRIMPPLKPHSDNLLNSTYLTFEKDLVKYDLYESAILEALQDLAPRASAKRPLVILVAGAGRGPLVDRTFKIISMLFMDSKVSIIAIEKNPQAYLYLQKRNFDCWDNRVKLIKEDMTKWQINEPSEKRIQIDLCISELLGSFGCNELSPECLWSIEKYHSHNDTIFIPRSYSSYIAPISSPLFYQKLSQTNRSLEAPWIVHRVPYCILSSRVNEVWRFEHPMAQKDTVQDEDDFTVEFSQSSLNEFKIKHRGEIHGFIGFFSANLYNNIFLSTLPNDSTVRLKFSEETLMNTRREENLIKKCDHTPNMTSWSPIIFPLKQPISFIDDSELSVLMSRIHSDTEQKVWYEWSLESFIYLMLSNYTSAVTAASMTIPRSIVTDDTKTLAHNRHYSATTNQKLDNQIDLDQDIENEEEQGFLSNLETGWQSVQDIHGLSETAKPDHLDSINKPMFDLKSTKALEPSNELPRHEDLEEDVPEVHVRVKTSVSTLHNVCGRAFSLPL

B1: Hs17p: yeast protein methyltransferase, homologue of Janus kinase binding protein 1, expressed by HSL7 (protein, UniProt P38274 1-827, looked up)
Protein arginine …: MHSNVFVGVKPGFNHKQHSKKSRFLENVSSHSPELPSNYDYVLLPITTPRYKEIVGQVFKDFQRQSIQNWKPLQIPEPQLQDICIPPFNVKKLDNDDTPSYIGLLSSWLELESRDPNVRDLGLKVLLNECKYARFVGINKLILAPPRDLSNLQLYGQMIYRLLQNRIVFAAPALTISISLPLYEDSDPLATWELWNTVRKQCEYHPSLTISLALPRTRTPSYVLNRWLAEPVSCLLVSSSIFASNQYDYPVLHKFNQNLILKFQKVNGDSQILGNELCVILHGMEKYANNVKGGESAYLEYINYLLKKGDKVLNSNSNHQFLLQEDSRIMPPLKPHSDNLLNSTYLTFEKDLVKYDLYESAILEALQDLAPRASAKRPLVILVAGAGRGPLVDRTFKIISMLFMDSKVSIIAIEKNPQAYLYLQKRNFDCWDNRVKLIKEDMTKWQINEPSEKRIQIDLCISELLGSFGCNELSPECLWSIEKYHSHNDTIFIPRSYSSYIAPISSPLFYQKLSQTNRSLEAPWIVHRVPYCILSSRVNEVWRFEHPMAQKDTVQDEDDFTVEFSQSSLNEFKIKHRGEIHGFIGFFSANLYNNIFLSTLPNDSTVRLKFSEETLMNTRREENLIKKCDHTPNMTSWSPIIFPLKQPISFIDDSELSVLMSRIHSDTEQKVWYEWSLESFIYLMLSNYTSAVTAASMTIPRSIVTDDTKTLAHNRHYSATTNQKLDNQIDLDQDIENEEEQGFLSNLETGWQSVQDIHGLSETAKPDHLDSINKPMFDLKSTKALEPSNELPRHEDLEEDVPEVHVRVKTSVSTLHNVCGRAFSLPL
modifications: FLAG tag

Legend:
JBP1 = JBP1 (Homo sapiens, UniProt O14744); experiment: In vitro methylation of myelin basic protein by JBP1, inhibition; type: biochemical; conditions: [3H]AdoMet methyl donor, 30° C., 30 minutes, FIG. 2C
Sequence of JBP1 (O14744 whole entry): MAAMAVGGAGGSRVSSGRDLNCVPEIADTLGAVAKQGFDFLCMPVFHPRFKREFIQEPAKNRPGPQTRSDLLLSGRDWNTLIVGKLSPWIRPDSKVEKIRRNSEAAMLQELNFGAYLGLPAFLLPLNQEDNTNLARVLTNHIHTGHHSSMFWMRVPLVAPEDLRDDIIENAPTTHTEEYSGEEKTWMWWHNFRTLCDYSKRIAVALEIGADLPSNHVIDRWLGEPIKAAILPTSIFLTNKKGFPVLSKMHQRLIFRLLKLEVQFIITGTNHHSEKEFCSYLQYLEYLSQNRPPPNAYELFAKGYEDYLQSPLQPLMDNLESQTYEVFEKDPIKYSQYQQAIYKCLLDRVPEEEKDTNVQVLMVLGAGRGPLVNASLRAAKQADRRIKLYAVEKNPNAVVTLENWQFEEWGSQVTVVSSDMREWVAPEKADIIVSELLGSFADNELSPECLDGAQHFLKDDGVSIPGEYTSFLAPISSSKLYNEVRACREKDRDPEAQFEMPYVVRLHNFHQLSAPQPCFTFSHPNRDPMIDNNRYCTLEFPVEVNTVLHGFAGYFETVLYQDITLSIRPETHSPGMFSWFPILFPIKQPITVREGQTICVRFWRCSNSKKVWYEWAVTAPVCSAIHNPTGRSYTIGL
Sequence of JBP1 (Q9BQA1 whole entry partner): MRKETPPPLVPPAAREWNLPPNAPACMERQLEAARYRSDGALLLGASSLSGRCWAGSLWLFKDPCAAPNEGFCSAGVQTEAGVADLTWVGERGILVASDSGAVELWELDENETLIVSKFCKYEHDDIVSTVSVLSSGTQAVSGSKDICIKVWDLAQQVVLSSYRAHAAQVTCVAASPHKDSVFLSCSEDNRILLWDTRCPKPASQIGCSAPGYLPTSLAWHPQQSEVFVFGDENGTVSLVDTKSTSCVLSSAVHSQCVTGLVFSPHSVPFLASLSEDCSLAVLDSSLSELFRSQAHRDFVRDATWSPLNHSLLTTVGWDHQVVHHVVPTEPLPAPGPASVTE
Description: (§1) In Vitro Methylation. Immunoprecipitated Flag-Hs17p was used to methylate histones and myelin basic protein with minor modifications of the method previously described. Each reaction contained 10 ig of substrate proteins (histones, MBP and cytochrome c). [^3H]AdoMet was added to a final concentration of 55 iCi/ml. The reaction contained 150 mM NaCl, 50 mM Tris.HCl (pH 8.0), 1% NP-40, 0.8 mM PMSF, 3 μg/ml antipain, 10 ig/ml benzamidine (10^4 kallikrein-inactivating units/ml) plus 1 μg/ml each of leupeptin, chymostatin and pepstatin. The 50 μl reactions were incubated at 30° C. for 30 minutes.
(§2) FIG. 2 illustrates the UV crosslinking of [^3H]AdoMet to Hs17p. […] After UV crosslinking, the 7.5% gel was dried and exposed to Biomax MR film for 15 days at −70° C. FIG. 2B show the in vitro methylation of protein substrates by Hs17p. Methylation reactions were done as described in “Experimental Procedures.” Each lane contained 10 μg at substrate protein. The position of the labeled bands coincided exactly with the location of the substrate proteins or the Coomassie blue-stained gel (not shown). The dried 15% gel was exposed to Biomax MR film for 21 days at −70° C. […] Protein sizes were calculated by the migration of broad range protein standards (BioRad).

Hs17p = target: T1, Hs17p; experiment: In vitro methylation of myelin basic protein by Hs17p, inhibition; type: biochemical; conditions: [3H]AdoMet methyl donor, 30° C., 30 minutes, FIG. 2C
Description: as §1, §2

[1] = test system: calf histones, bovine myelin basic protein and bovine cytochrome c; experiment: In vitro methylation of protein substrates; type: biochemical; conditions: substrates H2A, H4 and myelin basic protein, 10 μg, FIG. 2B
Description: as §1, §2

[2] = UV crosslinking of [3H]AdoMet; type: binding; conditions: immunoprecipitated protein, FIG. 2A
Description: UV Crosslinking. Crosslinking of [^3H]AdoMet to Hs17p and JBP1 was performed as described.
FIG. 2 illustrates the UV crosslinking of [^3H]AdoMet to Hs17p. […] After UV crosslinking, the 7.5% gel was dried and exposed to Biomax MR film for 15 days at −70° C. FIG. 2B show the in vitro methylation of protein substrates by Hs17p. Methylation reactions were done as described in “Experimental Procedures.” Each lane contained 10 μg at substrate protein. The position of the labeled bands coincided exactly with the location of the substrate proteins or the Coomassie blue-stained gel (not shown). The dried 15% gel was exposed to Biomax MR film for 21 days at −70° C. […] Protein methylation reactions were conducted as described in “Experimental Procedures,” except that homocysteine was added to the other reaction components on ice. The reactions were then incubated at 30° C. for 30 minutes. The 15% gel was exposed to Biomax MR film for 14 days at −70° C. Protein sizes were calculated by the migration of broad range protein standards (BioRad).

Row | Molecule | inhibition of myelin basic protein in vitro methylation by JBP1 (JBP1) | inhibition of myelin basic protein in vitro methylation by Hs17p (Hs17p) | in vitro methylation of substrate protein [1] | UV crosslinking / binding of [3H]AdoMet [2]
1 | N[C@@H](CCS)C(=O)O [homocysteine] | blocks | blocks | – | –
2 | B1 | – | – | methylated | binds AdoMet
